In patent US4554281A, “2-Amino-3-acylamino-6-benzylamino-pyridine-derivative having antiepileptic action” (priority 1982, dated 1985):

Key:
[1] = TD 50 - Neurotoxicity, rotating rod; design: species or system mouse (male Carworth Farms Mice); conditions: in vivo, ip, mouse, intraperitoneal
Description: TD 50: is the ED 50 for the behavior of the mouse on the experimental
model of the rotating rod in mg/kg with intraperitoneal application. The
TD 50 is a measure for the undesired neurotoxic side effect.
(§1) All experiments were carried out with male Carworth Farms Mice.
(§2) The materials were tested in three dosages (30, 100, 300 mg/kg) (600 mg/kg was co-tested if a sufficient amount of the material was present). The materials in each case were dissolved in 30% aqueous polyethylene glycol solution.
The test on the rotating rod was referred to for the evaluation of the neurotoxicity. The animals were placed on a rotating (6 rotations per minute) plastic rod having a diameter of 2.54 cm. […] An animal was characterized as neurologically toxic if it fell from the rotating rod within one minute.
number of animals which fell/total number of test animals

mouse [2] = experiment: s.c. Met - Subcutaneous Pentetrazole (Metrazole) Test (anticonvulsive action, intraperitoneal); assay type: in vivo, mouse (male Carworth Farms Mice); conditions: ip, read-out: Metrazole-Test (MET) ED 50
Description: as §1, §2
(§3) The absence of a clearly noticeable attack, (single occurrence of a […] spasm lasting 5 seconds) based on the previous intraperitoneal application of the test substances evaluated as protective action (the test substances were applied intraperitoneally before the application of pentetrazole). The results were represented as follows: number of animals having protective action/total number of test animals

[3] = as above; assay type: in vivo, mouse (male Carworth Farms Mice); conditions: in vivo, ip; mouse, intraperitoneal; number below the slanting line; read-out: quotient TD 50/ED 50 (MET), therapeutic breadth
Description: as §1, §2, §3

mouse [4] = experiment: MES - Maximum Electroshock Attack Test (anticonvulsive action, intraperitoneal); assay type: in vivo, mouse (male Carworth Farms Mice); conditions: ip, read-out: Maximum Electro-Shock (MES) ED 50
Description: as §1, §2
(§4) A maximum electroshock attack was obtained through alternating current (60 Hz, 50 m A intensity) with which the mouse was irritated for 0.2 seconds via corneal electrodes. A 5-7 times weaker intensity of irritation was sufficient to produce a minimum electroshock-attack. One drop of 0.9% aqueous NaCl solution was given before applying the electrodes into the eyes in order to guard against killing the animals. The test substances were dispersed intraperitoneally before the irritation. […] the tonic stretching components of the attack (rear extremities) was regarded as protective action. The results were represented as follows:
(§5) number of animals having protective action/total number of test animals

[5] = as above; assay type: in vivo, mouse (male Carworth Farms Mice); conditions: in vivo, ip; mouse, intraperitoneal; number below the slanting line; read-out: quotient TD 50/ED 50 (MES), therapeutic breadth
Description: as §1, §2, §4, §5

[6] = Oral acute toxicity (LD 50) according to Miller & Tainter; design: species or system white mouse; conditions: in vivo, mouse, per os, observation time 24 hours
Description: Examples for the toxicity on the mouse per se (expressed as LD 50 in mg/kg are as follows: […]
The determination of the oral toxicity on the white mouse was carried out in the international procedure according to Miller & Tainter (Proc. Soc., Exper. Biol. a Med. Vol. 57, page 261 et. seq. (1944)) with an observation time of 24 hours. The toxicity was stated as LD 50 in mg/kg.

| Structure (SMILES) | TD50 [1] [mg/kg] | ED50 (mouse [2]; Mus musculus) [mg/kg] | selectivity ratio [3] | ED50 (mouse [4]; Mus musculus) [mg/kg] | selectivity ratio [5] | LD50 at 24 h [6] [mg/kg] | ED50 (mouse [2]; mouse, intraperitoneal, s.c. pentetrazole 85 mg/kg) [mg/kg] | ED50 (mouse [4]; mouse, intraperitoneal) [mg/kg] |
| --- | --- | --- | --- | --- | --- | --- | --- | --- |
| CCOC(=O)Nc1ccc(NCc2c(C)cc(C)cc2C)nc1N.Cl [D 10 328, 2-amino-3-carbethoxyamino-6-(2,4,6-trimethyl-benzylamino)pyridine-hydrochloride] | 1.09 | 1.01 | 1.08 | 1.97 | 0.55 | 127 |  |  |
| CCOC(=O)Nc1ccc(NCc2ccc(C(C)=O)cc2)nc1N [D 10 558, 2-amino-3-carbethoxyamino-6-(4-methylcarbonyl-benzylamino)-pyridine] | 73.9 | 18.4 | 4 | 53.8 | 1.37 |  |  |  |
| CCOC(=O)Nc1ccc(NCc2cccc(F)c2)nc1N.Cl [D 10 981, 2-amino-3-carbethoxyamino-6-(3-fluorobenzylamino)-pyridine-hydrochloride] | 32.7 | 9.07 | 3.61 | 17.2 | 1.9 | 2060 |  |  |
| CCOC(=O)Nc1ccc(NCc2ccc(C(F)(F)F)cc2)nc1N.Cl [D 11 208, 2-amino-3-carbethoxyamino-6-(4-trifluoromethyl-benzylamino)-pyridine-hydrochloride] | 76.3 | 11.2 | 6.81 | 27.9 | 2.73 |  |  |  |
| CC(=O)Nc1ccc(NCc2ccc(F)cc2)nc1N.Cl [D 13 223, 2-amino-3-acetamino-6-(4-fluoro-benzylamino)-pyridine-hydrochloride] | 201 | 93.8 | 2.14 | 84.3 | 2.38 |  |  |  |
| CCOC(=O)Nc1ccc(NCc2ccccc2)nc1N.Cl [D 7175, 2-amino-3-carbethoxyamino-6-benzylamino-pyridine-hydrochloride] | 45.6 | 9.46 | 4.8 | 19.7 | 2.3 | 402 |  |  |
| CCOC(=O)Nc1ccc(NCc2ccc(Cl)cc2)nc1N.Cl [D 9389, 2-amino-3-carbethoxyamino-6-(4-chlorobenzylamino)-pyridine-hydrochloride] | 23.9 | 10 | 2.39 | 14.6 | 1.64 | 1250 to 1500 |  |  |
| CCOC(=O)Nc1ccc(NCc2ccc(NC(C)=O)cc2)nc1N.Cl [D 9663, 2-amino-3-carbethoxyamino-6-(4-methylcarbonylamino-benzylamino)-pyridine-hydrochloride] | 142 | 57.2 | 2.49 | 124 | 1.15 |  |  |  |
| CCOC(=O)Nc1ccc(NCc2ccc(S(N)(=O)=O)cc2)nc1N [D 9805, 2-amino-3-carbethoxyamino-6-(4-aminosulfonyl-benzylamino)-pyridine] | 530 | 550 | 0.96 | 108 | 4.9 |  |  |  |
| CCOC(=O)Nc1ccc(NCc2ccc(F)cc2)nc1N.Cl [D 9998, 2-amino-3-carbethoxyamino-6-(4-fluorobenzylamino)-pyridine-hydrochloride] | 37.7 |  | 1.86 |  | 1.67 | 617 | 20.3 | 22.5 |
